Several values for one entry are separate records, joined by “and”; a condition that tells them apart may be missing. Equal values may be shown once.
Tested on: TPA-Induced DNA Synthesis in Mouse Epidermis
Assay: TPA-induced DNA synthesis in mouse epidermis: [3H]thymidine incorporation and epidermal DNA content of a 2x2 cm2 skin section
Assay type: in vivo
Settings: for μg DNA / corrected cpm / cpm/μg DNA / cpm: individual mouse; for dose producing a nadir in [3H]thymidine incorporation / dose producing an overstimulation of [3H]thymidine incorporation: s.c.; for lowest effective dose which suppresses TPA-stimulated epidermal [3H]thymidine incorporation and DNA content: mice
Procedure: Epidermal hypeplasia is determined by measuring the stimulation in [^3H] thymidine incorporation as well as epidermal DNA content of a 2×2 cm^2 section of skin twenty hours after TPA application.
In prior experiments, 16α-fluoro-5-androsten-17-one was administered in escalating doses by the oral subcutaneous, intraperitoneal, and buccal routes of administration, and the effect on TPA-stimulated epidermal [^3H] thymidine incorporation and epidermal DNA content was determined.
In this experiment, the effect of treating mice subcutaneously (s.c.) with suspensions of 7α-hydroxy-16α-flouro-5-androsten-17-one and suspensions of 16aflouro-5-androsten-17-one were investigated.
Variousl6α-flouro-5-androsten-17 one suspensions (Q) were prepared. The vehicle was 95% saline (0.9% NaCl) and 5% Emulphor. For the 5 mg/kg s.c. suspension, 25.3 mg was suspended in 10 mL of Emulphor-saline. The other suspensions were made by diluting the 5 mg/kg suspension. For the 2.5 mg/kg suspension, 1 mL of 5mg/kg s.c. suspension was diluted to a final volume of 2mL, for the 1 m/kg suspension 1 mL of the 5 mg/kg suspension was made to a total of 5 mL, while for the 0.125 mg/kg suspension, 0.5 mL of the 5 mg/kg suspension was made to a final volume of 20 mL. Magnetic stir bars were added to the suspensions which were kept on a magnetic stirrer.
7α-hydroxy-16α-flouro-5-androsten-17-one was prepared as described hereinabove. For the 5 mg/kg s.c. suspension, 16.3 mg was suspended in 6.5 mL of Emulphor-saline. The other suspensions were made by diluting the 5 mg/kg suspension. For the 2.5 mg/kg, 1 mL of 5 mg/kg suspension was diluted to a final volume of 2 mL, for the 1 mg/kg suspension 1 mL of the 5 mg/kg suspension was made to total 5 mL, while for the 0.125 mg/kg suspension, 0.5 mL of the 5 mg/kg suspension was made up to final volume of 20 mL. Magnetic stir bars were added to the suspensions and the suspensions were kept on a magnetic stirrer.
Female CD-1 mice were obtained from Charles River Laboratories, Wilmington, Mass. at 44-46 days of age. The mice were housed two to three per cage in plastic shoebox cages on Alphacel bedding with 12 hours of alternating light and dark in the CAF Animal Facility, 6th floor, Pharmacy Building. The mice had ad libitum access-to Purina 5015 chow and acidified tap water (pH≦2.6). The mice were allowed to acclimate to the facility for one week prior to use in an experiment. Three days after obtaining the mice, the mice were shaved and weighed. Only those mice showing no hair regrowth were used in the experiment.
Four days after the mice were shaved, they were treated as follows:
The mice were sacrificed 20 hours after treatment by an overdose of CO2. Twenty minutes prior to sacrifice, the mice were injected with 60 μCi of [^3H]thymidine (Amersham Batch 297). The mice were treated with a depilatory to remove any residual hair. A 2×2 cm^2 piece of skin was excised, placed in ice water for 30 seconds, then in 55° C. water for 30 seconds, then ice water again for 30 seconds. The epidermis was scrapped off using a scalpel and the scrapings were placed into ice cold 0.4N TCA (trichloroacetic acid). The scrapings were homogenized using a Tekmar Tissumizer (80% power for 30 seconds). The homogenates were centrifuged for 20 minutes at 3,000×g. The precipitates were washed 3× with 0.2N TCA, and 2× with absolute ethanol. The DNA in each sample was hydrolyzed with 0.5N TCA for 30 minuts at 90°. The tubes were centrifuged for 20 minutes at 3000×g. A 0.2 mL aliquot of each hydrolysate was counted in a LKB Rackbeta scintillation counter using Scintiverse II BD as the counting medium. DNA content was determined by the Burton diphenylamine assay.
Various suspensions were prepared of 16α-fluoro-5-androsten-17-one as follows. The vehicle was 95% saline (0.9% NaCl) and 5% Emulphor. For the 5 mg/kg s.c. suspension, 27.8 mg was suspended in 11.4 mL of Emulphor-saline. The other suspensions were made by diluting the 5 mg/kg suspension. […]

[1] = Example 4, 0.125 mg/kg s.c. 1 h before topical TPA 2 μg, 20 h, 0.125 mg/kg
[2] = Example 4, 1 mg/kg s.c. 1 h before topical TPA 2 μg, 20 h, 1 mg/kg
[3] = Example 4, 2.5 mg/kg s.c. 1 h before topical TPA 2 μg, 20 h, 2.5 mg/kg
[4] = Example 4, 5 mg/kg s.c. 1 h before topical TPA 2 μg, 20 h, 5 mg/kg
[5] = Example 5, 1 mg/kg s.c. 1 h before topical TPA 2 μg, 20 h, listed as Fluasterone, 1 mg/kg
[6] = Example 5, 2.5 mg/kg s.c. 1 h before topical TPA 2 μg, 20 h, listed as Fluasterone, 2.5 mg/kg
[7] = Example 5, 5 mg/kg s.c. 1 h before topical TPA 2 μg, 20 h, listed as Fluasterone, 5 mg/kg
[8] = prior experiments, escalating doses, oral, subcutaneous, intraperitoneal and buccal routes

C[C@]12CCCCC1=CC[C@@H]1[C@@H]2CC[C@]2(C)C(=O)[C@H](F)C[C@@H]12 [Q, 16α-fluoro-5-androsten-17-one, reference compound]
μg DNA (Example 4, 0.125 mg/kg s.c. 1 h before topical TPA 2 μg, 20 h, Burton diphenylamine assay, 0.125 mg/kg): 10.0 µg and 9.1 µg | cpm/μg DNA (group average ±) (Example 4, 0.125 mg/kg s.c. 1 h before topical TPA 2 μg, 20 h): 441.5 ± 133.4 cpm/μg DNA | corrected cpm [1]: 3,471.0 cpm and 4,876.0 cpm | cpm/μg DNA [1]: 347.1 cpm/μg DNA and 535.8 cpm/μg DNA | cpm (Example 4, 0.125 mg/kg s.c. 1 h before topical TPA 2 μg, female CD-1 mice, 20 h after treatment, 0.125 mg/kg): 3,496.0 cpm and 4,901.0 cpm | cpm/μg DNA (group average ±) (Example 4, 1 mg/kg s.c. 1 h before topical TPA 2 μg, 20 h): 236.4 ± 46.5 cpm/μg DNA | corrected cpm [2]: 1,811.0 cpm and 2,750.1 cpm | cpm [2]: 1,836.0 cpm and 2,775.1 cpm | cpm/μg DNA [2]: 203.5 cpm/μg DNA and 269.6 cpm/μg DNA | μg DNA [2]: 8.9 µg and 10.2 µg | cpm/μg DNA (group average ±) (Example 4, 2.5 mg/kg s.c. 1 h before topical TPA 2 μg, 20 h): 173.3 ± 11.3 cpm/μg DNA | corrected cpm [3]: 1,251.0 cpm and 1,207.0 cpm | cpm [3]: 1,276.0 cpm and 1,232.0 cpm | cpm/μg DNA [3]: 181.3 cpm/μg DNA and 165.3 cpm/μg DNA | μg DNA [3]: 6.9 µg and 7.3 µg | cpm/μg DNA (group average ±) (Example 4, 5 mg/kg s.c. 1 h before topical TPA 2 μg, 20 h): 1105.5 ± 28.4 cpm/μg DNA | corrected cpm [4]: 8,249.0 cpm and 10,018.0 cpm | cpm [4]: 8,274.0 cpm and 10,043.0 cpm | cpm/μg DNA [4]: 1,085.4 cpm/μg DNA and 1,125.6 cpm/μg DNA | μg DNA [4]: 7.6 µg and 8.9 µg | dose producing a nadir in [3H]thymidine incorporation (Example 4): 2.5 mg/kg | dose producing an overstimulation of [3H]thymidine incorporation (Example 4): 5 mg/kg | cpm/μg DNA (group average ±) (Example 5, 1 mg/kg s.c. 1 h before topical TPA 2 μg, 20 h): 170.3 ± 21.7 cpm/μg DNA | corrected cpm [5]: 2,691.0 cpm and 2,741.0 cpm | cpm/μg DNA [5]: 185.6 cpm/μg DNA and 154.9 cpm/μg DNA | μg DNA [5]: 14.5 µg and 17.7 µg | cpm (Example 5, 1 mg/kg s.c. 1 h before topical TPA 2 μg, female CD-1 mice, 20 h, listed as Fluasterone, 1 mg/kg): 2,717.0 cpm and 2,767.0 cpm | cpm/μg DNA (group average ±) (Example 5, 2.5 mg/kg s.c. 1 h before topical TPA 2 μg, 20 h): 81.4 ± 12.0 cpm/μg DNA | corrected cpm [6]: 496.0 cpm and 566.0 cpm | cpm [6]: 522.0 cpm and 592.0 cpm | cpm/μg DNA [6]: 72.9 cpm/μg DNA and 89.8 cpm/μg DNA | μg DNA [6]: 6.8 µg and 6.3 µg | cpm/μg DNA (group average ±) (Example 5, 5 mg/kg s.c. 1 h before topical TPA 2 μg, 20 h): 258.8 ± 12.0 cpm/μg DNA | corrected cpm [7]: 2,192.0 cpm and 1,777.0 cpm | cpm [7]: 2,218.0 cpm and 1,803.0 cpm | cpm/μg DNA [7]: 267.3 cpm/μg DNA and 250.3 cpm/μg DNA | μg DNA [7]: 8.2 µg and 7.1 µg | dose producing a nadir in [3H]thymidine incorporation (Example 5): 2.5 mg/kg | dose producing an overstimulation of [3H]thymidine incorporation (Example 5): 5 mg/kg | lowest effective dose which suppresses TPA-stimulated epidermal [3H]thymidine incorporation and DNA content (prior experiments, buccal route): 2.5 to 5 mg/kg | dose response for [3H]thymidine incorporation (in words) [8]: U-shaped dose response | epidermal DNA content as the dose increased (in words) [8]: remained suppressed | lowest effective dose which suppresses TPA-stimulated epidermal [3H]thymidine incorporation and DNA content (prior experiments, intraperitoneal route): 5 mg/kg | lowest effective dose which suppresses TPA-stimulated epidermal [3H]thymidine incorporation and DNA content (prior experiments, oral route): 200 mg/kg | lowest effective dose which suppresses TPA-stimulated epidermal [3H]thymidine incorporation and DNA content (prior experiments, subcutaneous route): 2.5 mg/kg | TPA-induced epidermal hyperplasia in mice (in words) (prior finding): inhibits
